# Laboratory results as given in PubChem BioAssay (NCI).
# Several values for one entry are separate records, joined by “and”; a condition that tells them apart may be missing. Equal entries are not always repeated.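 Cells were grown in 96-well plates and exposed to each compound for 48 hours at five concentrations; endpoints were interpolated linearly between bracketing concentrations, or set to the highest concentration if not reached. The concentration for 50% growth inhibition is given as GI50. TGI is the concentration that stops growth completely.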
# Legend:
# Experiment in all cases: NCI anticancer screen, dose series, 48 h
# [1] = tested on: A549 NSCLC
# [2] = tested on: ACHN renal
# [3] = tested on: BT-549 breast
# [4] = tested on: CCRF-CEM leukemia
# [5] = tested on: COLO 205 colon
# [6] = tested on: DU-145 prostate
# [7] = tested on: EKVX NSCLC
# [8] = tested on: HCC-2998 colon
# [9] = tested on: HCT-116 colon
# [10] = tested on: HCT-15 colon
# [11] = tested on: HL-60(TB) leukemia
# [12] = tested on: HOP-62 NSCLC
# [13] = tested on: HOP-92 NSCLC
# [14] = tested on: HS 578T breast
# [15] = tested on: HT29 colon
# [16] = tested on: K-562 leukemia
# [17] = tested on: KM12 colon
# [18] = tested on: LOX IMVI melanoma
# [19] = tested on: M14 melanoma
# [20] = tested on: MALME-3M melanoma
# [21] = tested on: MCF7 breast
# [22] = tested on: MDA-MB-231 breast
# [23] = tested on: MDA-MB-435
# [24] = tested on: MDA-MB-468 breast
# [25] = tested on: MOLT-4 leukemia
# [26] = tested on: NCI-H226 lung
# [27] = tested on: NCI-H23 lung
# [28] = tested on: NCI-H460 lung
# [29] = tested on: NCI-H522 lung
# [30] = tested on: NCI/ADR-RES ovarian
# [31] = tested on: OVCAR-3 ovarian
# [32] = tested on: OVCAR-4 ovarian
# [33] = tested on: OVCAR-5 ovarian
# [34] = tested on: OVCAR-8 ovarian
# [35] = tested on: PC-3 prostate
# [36] = tested on: RPMI-8226 leukemia
# [37] = tested on: RXF 393 renal
# [38] = tested on: SF-268 CNS
# [39] = tested on: SF-295 CNS
# [40] = tested on: SF-539 CNS
# [41] = tested on: SK-MEL-2 melanoma
# [42] = tested on: SK-MEL-28 melanoma
# [43] = tested on: SK-OV-3 ovarian
# [44] = tested on: SN12C renal
# [45] = tested on: SNB-19 CNS
# [46] = tested on: SNB-75 CNS
# [47] = tested on: SR leukemia
# [48] = tested on: T-47D breast
# [49] = tested on: U251 CNS
# [50] = tested on: UACC-257 melanoma
# [51] = tested on: UACC-62 melanoma
# [52] = tested on: 786-0 renal
# [53] = tested on: A498 renal
# [54] = tested on: IGROV1 ovarian
# [55] = tested on: SK-MEL-5 melanoma
# [56] = tested on: TK-10 renal
compound,measurement,setting,value
CN1CCN(C(=O)Oc2cc3c(c4ccccc24)[C@H](CCl)CN3C(=O)c2cc3cc(OCCCN4CCC4)ccc3[nH]2)[C@H]2CSSC[C@H]21,GI50,[1],4.96 nM
same,TGI,[1],> 15300 nM
same,GI50,[2],2.5 nM
same,TGI,[2],8.71 nM
same,GI50,[3],19.2 nM and 54 nM
same,TGI,[3],74.1 nM and 348 nM
same,GI50,[4],42 nM and 18.4 nM
same,GI50,[5],25.5 nM and 21.7 nM
same,TGI,[5],106 nM and 50.4 nM
same,GI50,[6],4.29 nM and 5.32 nM
same,GI50,[7],20.4 nM and 27.3 nM
same,TGI,[7],59.6 nM and 70.7 nM
same,GI50,[8],16 nM and 22 nM
same,TGI,[8],47.3 nM and 52.7 nM
same,GI50,[9],8.63 nM and 45.7 nM
same,TGI,[9],> 15300 nM
same,GI50,[10],13.1 nM and 11 nM
same,TGI,[10],40.7 nM and 50.6 nM
same,GI50,[11],49.8 nM and 28.5 nM
same,TGI,[11],368 nM
same,GI50,[12],9.09 nM and 9.6 nM
same,TGI,[12],33.2 nM and 45.3 nM
same,GI50,[13],67.1 nM
same,GI50,[14],100 nM and 141 nM
same,TGI,[14],591 nM and 810 nM
same,GI50,[15],19.7 nM
same,GI50,[16],24.4 nM and 17.2 nM
same,TGI,[16],> 15300 nM
same,GI50,[17],46.2 nM and 90.4 nM
same,GI50,[18],3.15 nM
same,TGI,[18],24.8 nM
same,GI50,[19],15.9 nM and 14.2 nM
same,TGI,[19],70 nM and 46.2 nM
same,GI50,[20],18.2 nM and 19.3 nM
same,TGI,[20],39.6 nM and 40.9 nM
same,GI50,[21],1.53 nM
same,TGI,[21],1530 nM
same,GI50,[22],32.1 nM and 37.8 nM
same,TGI,[22],92.9 nM and 83.7 nM
same,GI50,[23],20.3 nM and 25.1 nM
same,TGI,[23],47.9 nM and 55.4 nM
same,GI50,[24],5.3 nM
same,TGI,[24],19.7 nM
same,GI50,[25],23.5 nM and 14.2 nM
same,TGI,[25],324 nM
same,GI50,[26],31.8 nM
same,TGI,[26],1150 nM
same,GI50,[27],6.68 nM and 4.34 nM
same,TGI,[27],25.1 nM and 19.6 nM
same,GI50,[28],1.63 nM
same,TGI,[28],268 nM
same,GI50,[29],30.6 nM and 28.3 nM
same,TGI,[29],154 nM and 75.8 nM
same,GI50,[30],13.5 nM
same,TGI,[30],53.6 nM
same,GI50,[31],28.1 nM and 50.5 nM
same,TGI,[31],88.3 nM and 292 nM
same,GI50,[32],43.3 nM and 73.5 nM
same,TGI,[32],553 nM and 446 nM
same,GI50,[33],29 nM and 22.7 nM
same,TGI,[33],360 nM and 86.1 nM
same,GI50,[34],15.3 nM and 12.1 nM
same,GI50,[35],18 nM and 34 nM
same,TGI,[35],> 15300 nM
same,GI50,[36],36 nM and 35.1 nM
same,GI50,[37],17.7 nM and 4.25 nM
same,TGI,[37],37.9 nM and 14.5 nM
same,GI50,[38],19.8 nM and 20.1 nM
same,TGI,[38],84.4 nM and 173 nM
same,GI50,[39],10.6 nM and 2.14 nM
same,TGI,[39],52 nM and 5.86 nM
same,GI50,[40],16.8 nM and 22.4 nM
same,TGI,[40],40.6 nM and 55.4 nM
same,GI50,[41],28.5 nM and 31.3 nM
same,TGI,[41],62.6 nM and 53.8 nM
same,GI50,[42],18.7 nM
same,TGI,[42],40 nM
same,GI50,[43],23.5 nM and 29.9 nM
same,TGI,[43],59.6 nM and 128 nM
same,GI50,[44],19.4 nM and 11.6 nM
same,TGI,[44],459 nM and 222 nM
same,GI50,[45],23.2 nM and 17.9 nM
same,TGI,[45],2460 nM and 314 nM
same,GI50,[46],26 nM
same,TGI,[46],137 nM
same,GI50,[47],4.72 nM
same,GI50,[48],28.6 nM
same,TGI,[48],598 nM
same,GI50,[49],18 nM and 3.56 nM
same,TGI,[49],2300 nM
same,GI50,[50],27.3 nM and 34.4 nM
same,TGI,[50],135 nM and 86.5 nM
same,GI50,[51],10.5 nM and 4.24 nM
same,TGI,[51],26.4 nM and 21.3 nM
Nc1nn2c(-c3cc4cc(Br)ccc4oc3=O)ccnc2c1N=Nc1ccc(Br)cc1,GI50,[52],1760 nM
same,TGI,[52],3350 nM
same,GI50,[53],1810 nM
same,TGI,[53],3920 nM
same,GI50,[1],2420 nM
same,TGI,[1],6860 nM
same,GI50,[3],2940 nM
same,TGI,[3],8720 nM
same,GI50,[5],3340 nM
same,TGI,[5],> 100000 nM
same,GI50,[6],3240 nM
same,TGI,[6],> 100000 nM
same,GI50,[8],3740 nM
same,TGI,[8],> 100000 nM
same,GI50,[9],1750 nM
same,TGI,[9],3440 nM
same,GI50,[10],2580 nM
same,TGI,[10],8230 nM
same,GI50,[11],> 100000 nM
same,TGI,[11],> 100000 nM
same,GI50,[12],1990 nM
same,TGI,[12],4160 nM
same,GI50,[13],2000 nM
same,TGI,[13],4610 nM
same,GI50,[54],2720 nM
same,TGI,[54],8760 nM
same,GI50,[16],3280 nM
same,TGI,[16],> 100000 nM
same,GI50,[17],3760 nM
same,TGI,[17],> 100000 nM
same,GI50,[18],2090 nM
same,TGI,[18],4460 nM
same,GI50,[19],3060 nM
same,TGI,[19],> 100000 nM
same,GI50,[21],2890 nM
same,TGI,[21],10100 nM
same,GI50,[22],1730 nM
same,TGI,[22],3400 nM
same,GI50,[24],2040 nM
same,TGI,[24],5470 nM
same,GI50,[25],> 100000 nM
same,TGI,[25],> 100000 nM
same,GI50,[26],1960 nM
same,TGI,[26],4580 nM
same,GI50,[27],2060 nM
same,TGI,[27],4400 nM
same,GI50,[29],2200 nM
same,TGI,[29],6550 nM
same,GI50,[30],2220 nM
same,TGI,[30],5010 nM
same,GI50,[31],2330 nM
same,TGI,[31],6370 nM
same,GI50,[33],2110 nM
same,TGI,[33],5210 nM
same,GI50,[34],2810 nM
same,TGI,[34],9790 nM
same,GI50,[35],1990 nM
same,TGI,[35],5090 nM
same,GI50,[37],2250 nM
same,TGI,[37],5370 nM
same,GI50,[39],1860 nM
same,TGI,[39],4010 nM
same,GI50,[40],1730 nM
same,TGI,[40],3130 nM
same,GI50,[41],3680 nM
same,TGI,[41],17100 nM
same,GI50,[42],2180 nM
same,TGI,[42],4930 nM
same,GI50,[55],3250 nM
same,TGI,[55],> 100000 nM
same,GI50,[43],2620 nM
same,TGI,[43],6610 nM
same,GI50,[44],1940 nM
same,TGI,[44],3870 nM
same,GI50,[45],2840 nM
same,TGI,[45],10900 nM
same,GI50,[46],1810 nM
same,TGI,[46],4620 nM
same,GI50,[47],5120 nM
same,TGI,[47],> 100000 nM
same,GI50,[48],2290 nM
same,TGI,[48],6800 nM
same,GI50,[56],2340 nM
same,TGI,[56],5080 nM
same,GI50,[49],2140 nM
same,TGI,[49],5250 nM
same,GI50,[50],3060 nM
same,TGI,[50],> 100000 nM
same,GI50,[51],3240 nM
same,TGI,[51],> 100000 nM
